# Assay results taken from paper PMC7523345 (Investigational new drugs, 2018).
# Entries after “also recorded” stand apart in the source; their conditions may differ.
# Assay: Phase I dose escalation study: safety, tolerability, DLT and MTD
# Assay type: in vivo
smiles,measurement,setting,value
Cc1cccc2c1NC(=O)[C@@H](NC(=O)[C@H](CCC(F)(F)F)[C@H](CCC(F)(F)F)C(N)=O)N=C2c1cccc(F)c1 [BMS-986115],"Hypokalaemia (drug related AE, Grade 3 and 4)",Arm B BIW 4 mg (N = 2),0 n (%)
same,"Hypokalaemia (drug related AE, all grades)",Arm B BIW 4 mg (N = 2),1 (50) n (%)
same,"Hyponatraemia (drug related AE, Grade 3 and 4)",Arm B BIW 4 mg (N = 2),0 n (%)
same,"Hyponatraemia (drug related AE, all grades)",Arm B BIW 4 mg (N = 2),0 n (%)
same,"Hypophosphataemia (drug related AE, Grade 3 and 4)",Arm B BIW 4 mg (N = 2),1 (50) n (%)
same,"Hypophosphataemia (drug related AE, all grades)",Arm B BIW 4 mg (N = 2),1 (50) n (%)
same,"Ileus (drug related AE, Grade 3 and 4)",Arm B BIW 4 mg (N = 2),0 n (%)
same,"Increased upper airway secretion (drug related AE, all grades)",Arm B BIW 4 mg (N = 2),1 (50) n (%)
same,"Laryngeal pain (drug related AE, all grades)",Arm B BIW 4 mg (N = 2),0 n (%)
same,"Leucocytosis (drug related AE, Grade 3 and 4)",Arm B BIW 4 mg (N = 2),0 n (%)
same,"Mouth ulceration (drug related AE, all grades)",Arm B BIW 4 mg (N = 2),0 n (%)
same,"Nausea (drug related AE, Grade 3 and 4)",Arm B BIW 4 mg (N = 2),0 n (%)
same,"Nausea (drug related AE, all grades)",Arm B BIW 4 mg (N = 2),0 n (%)
same,"Pruritus (drug related AE, Grade 3 and 4)",Arm B BIW 4 mg (N = 2),0 n (%)
same,"Pruritus (drug related AE, all grades)",Arm B BIW 4 mg (N = 2),1 (50) n (%)
same,"Pulmonary embolism (drug related AE, Grade 3 and 4)",Arm B BIW 4 mg (N = 2),0 n (%)
same,"Rash (drug related AE, all grades)",Arm B BIW 4 mg (N = 2),0 n (%)
same,"Rash maculopapular (drug related AE, all grades)",Arm B BIW 4 mg (N = 2),1 (50) n (%)
same,"Sinusitis (drug related AE, all grades)",Arm B BIW 4 mg (N = 2),0 n (%)
same,"Urticaria (drug related AE, Grade 3 and 4)",Arm B BIW 4 mg (N = 2),0 n (%)
same,"Vision blurred (drug related AE, all grades)",Arm B BIW 4 mg (N = 2),0 n (%)
same,"Vomiting (drug related AE, Grade 3 and 4)",Arm B BIW 4 mg (N = 2),0 n (%)
same,"Vomiting (drug related AE, all grades)",Arm B BIW 4 mg (N = 2),0 n (%)
same,"Weight decreased (drug related AE, all grades)",Arm B BIW 4 mg (N = 2),0 n (%)
same,Description of DLT,Arm B BIW 8 mg,Gr 3 diarrhoea; Gr 3 nausea/dehydration/anorexia with Gr 2 fatigue; also recorded: G3 diarrhoea; also recorded: G3 nausea/dehydration/anorexia
same,Description of study drug toxicity that led to treatment discontinuation,Arm B BIW 8 mg,G3 Diarrhoea (N = 1); also recorded: G3 Dehydration and anorexia (N = 1)
same,"Abdominal distension (drug related AE, all grades)",Arm B BIW 8 mg (N = 8),0 n (%)
same,"Abdominal pain (drug related AE, Grade 3 and 4)",Arm B BIW 8 mg (N = 8),0 n (%)
same,"Abdominal pain (drug related AE, all grades)",Arm B BIW 8 mg (N = 8),0 n (%)
same,"Blood creatinine increased (drug related AE, all grades)",Arm B BIW 8 mg (N = 8),1 (13) n (%)
same,"Colitis (drug related AE, Grade 3 and 4)",Arm B BIW 8 mg (N = 8),0 n (%)
same,"Cough (drug related AE, Grade 3 and 4)",Arm B BIW 8 mg (N = 8),0 n (%)
same,"Cough (drug related AE, all grades)",Arm B BIW 8 mg (N = 8),1 (13) n (%)
same,"Decreased Appetite (drug related AE, Grade 3 and 4)",Arm B BIW 8 mg (N = 8),1 (13) n (%)
same,"Decreased Appetite (drug related AE, all grades)",Arm B BIW 8 mg (N = 8),5 (63) n (%)
same,"Dehydration (drug related AE, Grade 3 and 4)",Arm B BIW 8 mg (N = 8),1 (13) n (%)
same,"Dehydration (drug related AE, all grades)",Arm B BIW 8 mg (N = 8),2 (25) n (%)
same,"Dermatitis acneiform (drug related AE, all grades)",Arm B BIW 8 mg (N = 8),0 n (%)
same,"Diarrhoea (drug related AE, Grade 3 and 4)",Arm B BIW 8 mg (N = 8),2 (25) n (%)
same,"Diarrhoea (drug related AE, all grades)",Arm B BIW 8 mg (N = 8),7 (88) n (%)
same,"Dry mouth (drug related AE, all grades)",Arm B BIW 8 mg (N = 8),1 (13) n (%)
same,"Dry skin (drug related AE, all grades)",Arm B BIW 8 mg (N = 8),2 (25) n (%)
same,"Dysgeusia (drug related AE, all grades)",Arm B BIW 8 mg (N = 8),1 (13) n (%)
same,"Dyspepsia (drug related AE, all grades)",Arm B BIW 8 mg (N = 8),0 n (%)
same,"Dysphonia (drug related AE, all grades)",Arm B BIW 8 mg (N = 8),1 (13) n (%)
same,"Fatigue (drug related AE, Grade 3 and 4)",Arm B BIW 8 mg (N = 8),0 n (%)
same,"Fatigue (drug related AE, all grades)",Arm B BIW 8 mg (N = 8),4 (50) n (%)
same,"Flatulence (drug related AE, all grades)",Arm B BIW 8 mg (N = 8),2 (25) n (%)
same,"Hypocalcaemia (drug related AE, Grade 3 and 4)",Arm B BIW 8 mg (N = 8),1 (13) n (%)
same,"Hypocalcaemia (drug related AE, all grades)",Arm B BIW 8 mg (N = 8),1 (13) n (%)
same,"Hypokalaemia (drug related AE, Grade 3 and 4)",Arm B BIW 8 mg (N = 8),0 n (%)
same,"Hypokalaemia (drug related AE, all grades)",Arm B BIW 8 mg (N = 8),2 (25) n (%)
same,"Hyponatraemia (drug related AE, Grade 3 and 4)",Arm B BIW 8 mg (N = 8),1 (13) n (%)
same,"Hyponatraemia (drug related AE, all grades)",Arm B BIW 8 mg (N = 8),1 (13) n (%)
same,"Hypophosphataemia (drug related AE, Grade 3 and 4)",Arm B BIW 8 mg (N = 8),4 (50) n (%)
same,"Hypophosphataemia (drug related AE, all grades)",Arm B BIW 8 mg (N = 8),5 (63) n (%)
same,"Ileus (drug related AE, Grade 3 and 4)",Arm B BIW 8 mg (N = 8),0 n (%)
same,"Increased upper airway secretion (drug related AE, all grades)",Arm B BIW 8 mg (N = 8),2 (25) n (%)
same,"Laryngeal pain (drug related AE, all grades)",Arm B BIW 8 mg (N = 8),0 n (%)
same,"Leucocytosis (drug related AE, Grade 3 and 4)",Arm B BIW 8 mg (N = 8),1 (13) n (%)
same,"Mouth ulceration (drug related AE, all grades)",Arm B BIW 8 mg (N = 8),1 (13) n (%)
same,"Nausea (drug related AE, Grade 3 and 4)",Arm B BIW 8 mg (N = 8),1 (13) n (%)
same,"Nausea (drug related AE, all grades)",Arm B BIW 8 mg (N = 8),6 (75) n (%)
same,"Pruritus (drug related AE, Grade 3 and 4)",Arm B BIW 8 mg (N = 8),0 n (%)
same,"Pruritus (drug related AE, all grades)",Arm B BIW 8 mg (N = 8),2 (25) n (%)
same,"Pulmonary embolism (drug related AE, Grade 3 and 4)",Arm B BIW 8 mg (N = 8),0 n (%)
same,"Rash (drug related AE, all grades)",Arm B BIW 8 mg (N = 8),3 (38) n (%)
same,"Rash maculopapular (drug related AE, all grades)",Arm B BIW 8 mg (N = 8),2 (25) n (%)
same,"Sinusitis (drug related AE, all grades)",Arm B BIW 8 mg (N = 8),0 n (%)
same,"Urticaria (drug related AE, Grade 3 and 4)",Arm B BIW 8 mg (N = 8),0 n (%)
